Values joined by “and” are separate entries in the source; they are usually repeats but may differ in a detail not shown here. Equal values may be shown once.
Key:
[1] = system: L1210/CDDP (cisplatin resistant line of L1210 leukemia); experiment: Antitumor activity vs cisplatin-resistant L1210 leukemia (L1210/CDDP) in mice; type: in vivo, mouse
Description: Results of antitumor testing against the transplantable mouse tumors L1210 leukemia, cisplatin-resistant L1210 leukemia, B16 melanoma, Madison 109 lung carcinoma and colon 26 carcinoma are shown below in Tables 1 and 2. […]
(§1) The methods used to evaluate the platinum complexes for antitumor activity and toxicity in animals are summarized below. These methods have been published elsewhere in more detail (Rose, et al. Cancer Treat. Rep. 66: 135, 1982; Florczyk, et al, Cancer Treat. Rep. 66: 187, 1982).
(§2) The parent line of L1210 leukemia (L1210) was maintained in DBA/2 mice by ip transplantation of 10^5 cells at weekly intervals. […] B16 malenoma (B16) was maintained by sc transplant in C57BL/6 mice every two weeks. Madison 109 lung carcinoma (M109) and colon 26 carcinoma (C26) were maintained by sc transplant in BALB/c mice every two weeks.
(§3) The level and route of tumor inoculum, host, group size, and drug treatment schedule and route for each tumor type are summarized below in Table 6. Each complex was evaluated initially against L1210 at 4 dose levels per schedule selected on the basis of lethality data provided by the Wadley Institute. In subsequent experiments with the other tumors the complexes were evaluated at a minimum of 3 dose levels selected on the basis of maximum tolerated levels in the L1210 experiments. Cisplatin-treated groups and a saline-treated (or untreated) tumor control group were included in each experiment.
(§4) The L1210 experiments were terminated on Day 30 whereas the B16, C26 and M109 experiments were terminated on Day 60 (some C26 experiments were terminated on Day 75). Mice alive at the termination day were autopsied and considered cured if no tumor was visible. […] A complex was considered active if it produced a % T/C value ≥125.

BDF1 mice [2] = experiment: Nephrotoxicity: effect on blood urea nitrogen (BUN) in BDF1 mice; conditions: for BUN↑, Mouse: effect relative to cisplatin
Procedure: The other compounds were in such short supply that they were tested for effects on BUN values using the optimum dose (O.D.) from the L1210 test for dose selection.
The toxicity studies were done in male BDF1 mice (25-29 gm) and castrated male Fitch ferrets (1-1.5 kg).
The complexes that were active against L1210 were evaluated for nephrotoxicity by determining their effects on blood urea nitrogen (BUN) levels in mice. Groups of 40-50 mice/experiment were bled from the retro-orbital plexus and individual BUN values determined by a modified urease method using a Centrifichem System 400. The test complex, or saline for controls, was given at several dose levels (5-10 mice/dose) in single ip injections. The highest dose of the complex usually corresponded to its LD50 value or 1.5 times its optimal single dose in the L1210 experiment. At least two lower doses were included to evaluate dose-related effects. The BUN values were measured 4 and 7 days after dosing. BUN values ≥30 mg% were considered indicative of drug-induced nephrotoxicity.

B16 melanoma [3] = experiment: Antitumor activity vs B16 melanoma, sc tumor implant with iv drug dosing; type: in vivo, mouse
Description: ^b Sc tumor implant with iv drug dosing.
as §2, §3, §4

B16 melanoma [4] = experiment: Antitumor activity vs ip B16 melanoma in mice; type: in vivo, mouse; set-up: O.D.: unit not given here; conditions: for O.D.: ip B16 (3×; 9×); for Max. % T/C: ip B16 (3×; 9×): q4d × 3 or qd 1-9, ip, dying mice only; for Ratio of Max. % T/C Complex/cDDP: ip B16, relative to concomitant cisplatin
Description: as §1, §2
The level and route of tumor inoculum, host, group size, and drug treatment schedule and route for each tumor type are summarized below in Table 6. Each complex was evaluated initially against L1210 at 4 dose levels per schedule selected on the basis of lethality data provided by the Wadley Institute.
as §4

M109 carcinoma = experiment: Antitumor activity vs ip M109 (Madison 109 lung) carcinoma in mice; type: in vivo, mouse; set-up: O.D.: unit not given here; conditions: for O.D.: ip M109 (2×; 4×); for Max. % T/C: ip M109 (2×; 4×): q3d × 2 or qd 1-4, ip, dying mice only
Description: (§5) Results of antitumor testing against the transplantable mouse tumors L1210 leukemia, cisplatin-resistant L1210 leukemia, B16 melanoma, Madison 109 lung carcinoma and colon 26 carcinoma are shown below in Tables 1 and 2.
as §1, §2, §3, §4
8 q3d^a × 2 or qd 1-4, ip

L1210 leukemia = experiment: Antitumor activity vs transplantable L1210 leukemia (ip) in mice; type: in vivo, mouse; conditions: for Max % T/C: dying mice only; for OD (optimum dose): optimum dose from the L1210 test
Description: The antitumor activities of the complexes provided by the present invention have been determined against L-1210 leukemia in the mouse and, for certain of the complexes, against other mouse tumor systems.
as §5
In Table 1 are shown the maximum % T/C values obtained for each platinum compound versus L1210 leukemia using both single and qd 1→5 dosing.
as §1, §2, §3, §4

C26 carcinoma = experiment: Antitumor activity vs ip C26 (colon 26) carcinoma in mice; type: in vivo, mouse; set-up: O.D.: unit not given here; conditions: for O.D.: ip C26 (2×; 4×); for Max. % T/C: ip C26 (2×; 4×): q3d × 2 or qd 1-4, ip, dying mice only
Description: as §5, §1, §2, §3, §4
8 q3d^b × 2 or qd 1-4, ip

BDF1 mice [5] = experiment: Deaths (D.14) in the BUN test in BDF1 mice; type: in vivo, mouse
BDF1 mice [6] = experiment: Single-dose ip LD50 in BDF1 mice; type: in vivo, mouse; conditions: 30 days observation
Procedure: Single-dose ip LD50 values were determined in BDF1 mice for the indicated complexes.

[7] = Solubility stated in the preparation examples
Solubility (Table 3) = conditions: medium not given
[8] = L1210, Day 1, in intralipid plus ethanol
[9] = L1210, single dose Day 1, ip, (a), (b) determinations
[10] = L1210, single dose Day 1, ip, dose giving the Max % T/C, same order

| Molecule | BUN↑, Mouse (BDF1 mice [2]) | O.D. (B16 melanoma [4]) | Max. % T/C (B16 melanoma [4]) | O.D. (M109 carcinoma) | Max. % T/C (M109 carcinoma) | O.D. (optimal dose) (L1210 leukemia; L1210, QD 1 → 5, ip) | Max % T/C (L1210 leukemia; L1210, QD 1 → 5, ip) | Max % T/C (L1210 leukemia; [9]) | O.D. (optimal dose) (L1210 leukemia; [10]) | OD (optimum dose) (L1210 leukemia) | O.D. (C26 carcinoma) | Max. % T/C (C26 carcinoma) | LD50 (BDF1 mice [6]) | Ratio of Max. % T/C Complex/cDDP (B16 melanoma [4]) | Solubility in water [7] | Solubility (Solubility (Table 3)) | further results |
| --- | --- | --- | --- | --- | --- | --- | --- | --- | --- | --- | --- | --- | --- | --- | --- | --- | --- |
| N[C@@H]1CCCC[C@H]1N.O=C([O-])C(F)(F)C(F)(F)C(F)(F)F.O=C([O-])C(F)(F)C(F)(F)C(F)(F)F.[Pt+2] (relative stereo) [Example 3, bis-heptafluorobutyrato trans(-)-1,2-diaminocyclohexane platinum(II)] | 0 | 1 | 182% | 12 and 8 | 118% and 103% | 3 mg/kg/inj | 186% | 157% | 48 mg/kg/inj | 24 mg/kg/ip | 16 | 119% |  |  |  |  | O.D. (optimal dose) ([1]; Day 1, in intralipid plus ethanol): 12 mg/kg/inj; Max % T/C ([1]; Day 1, in intralipid plus ethanol, dying mice only): 195%; Incidence of BUN > 30 mg % (BDF1 mice [2]; 24 mg/kg ip): 0/3; Incidence of BUN > 30 mg % (BDF1 mice [2]; 36 mg/kg ip): 0/2; O.D. (B16 melanoma [3]): 4; Max. % T/C (B16 melanoma [3]; dying mice only): 164%; O.D. (optimal dose) (L1210 leukemia; [8]): 24 mg/kg/inj and 18 mg/kg/inj; Max % T/C (L1210 leukemia; [8]): 214% and 200%; Cures/total (L1210 leukemia; L1210, QD 1 → 5, ip): 2/6; Deaths D.14 (BDF1 mice [5]; 24 mg/kg ip): 2/5; Deaths D.14 (BDF1 mice [5]; 36 mg/kg ip): 3/5 |
| hydroxymethylphosphonato trans(-)-1,2-diaminocyclohexane platinum(II) [Example 12] | 0 | 4 | 229% | 18 | 135% | 3 mg/kg/inj | 293% | 221% and 275% | 24 mg/kg/inj and 21 mg/kg/inj | 24 mg/kg/ip | 24 | 125% | 79 mg/kg/ip | 1.08 | soluble | 3000 µg/mL | Cures/total ([1]; Day 1): 2/6; O.D. (optimal dose) ([1]; Day 1): 14 mg/kg/inj; Max % T/C ([1]; Day 1, dying mice only): 340%; Incidence of BUN > 30 mg % (BDF1 mice [2]; 44 mg/kg ip): 1/6; Incidence of BUN > 30 mg % (BDF1 mice [2]; 59 mg/kg ip): 0/4; Ratio of Max. % T/C Complex/cDDP (M109 carcinoma; ip M109, relative to concomitant cisplatin): .95; Ratio of Max. % T/C Complex/cDDP (C26 carcinoma; ip C26, relative to concomitant cisplatin): .87; Solubility in methanol ([7]; methanol): soluble; Deaths D.14 (BDF1 mice [5]; 44 mg/kg ip): 6/10; Deaths D.14 (BDF1 mice [5]; 59 mg/kg ip): 9/10; Deaths D.14 (BDF1 mice [5]; 79 mg/kg ip): 10/10 |
| NCC1(N)CCCCCCC1.O=C([O-])CP(=O)([O-])[O-].[H+].[Pt+2] [Example 15, phosphonoacetato 1-aminomethylcyclooctylamine platinum(II)] | < | 3 | 147% |  |  | 10 mg/kg/inj | 193% | 236% | 80 mg/kg/inj | 80 mg/kg/ip |  |  | 137 mg/kg/ip | .77 | very water-soluble | 7000 µg/mL | Incidence of BUN > 30 mg % (BDF1 mice [2]; 77 mg/kg ip): 0/10; Incidence of BUN > 30 mg % (BDF1 mice [2]; 103 mg/kg ip): 2/10; Incidence of BUN > 30 mg % (BDF1 mice [2]; 137 mg/kg ip): 7/10; Deaths D.14 (BDF1 mice [5]; 77 mg/kg ip): 0/10; Deaths D.14 (BDF1 mice [5]; 103 mg/kg ip): 3/10; Deaths D.14 (BDF1 mice [5]; 137 mg/kg ip): 9/10 |

Reference: patent US4562275A, “Antitumor platinum complexes” (priority 1984, dated 1985)
